Measurements from a melting point compilation (Tetko et al.; mined from patent text by program, amines drawn as free bases though some values may be those of a salt).

Row | SMILES | melting point
1 | CCOC(=O)C1=C(C)N=C(SCc2ccc(OC)cc2)N(C(=O)c2ccc([N+](=O)[O-])cc2)C1c1cccc([N+](=O)[O-])c1 (configuration not stated) | 121 to 123 °C
2 | CC(c1cc2ccccc2s1)N(O)C=O (configuration not stated) | 115 to 116 °C
3 | Nc1nc(Cl)nc2c1ncn2C1OC(COC2CC2)C(O)C1O (configuration not stated) | 122 to 124 °C
4 | O=C(Nc1c(C(O)(C(F)(F)F)C(F)(F)F)ccc2ccccc12)c1ccc(OC(F)(F)F)cc1 | 179 to 180 °C
5 | O=C(C=P(c1ccccc1)(c1ccccc1)c1ccccc1)N1CCCCC1 | 180 to 188 °C
6 | CCN(CC)CC1CCCCN1CC(=O)N1c2ccccc2C(=O)Nc2ccc(Cl)nc21 (configuration not stated) | 191 to 192 °C
7 | Cn1ncc2c(=S)n3c(nc21)SCC3 | 199 to 200 °C
8 | CC(CCC(=O)O)c1ccc2c(c1)C(=O)c1ccccc1CO2 (configuration not stated) | 120 to 124 °C
9 | CN1C(=O)N(C)C(=O)C2(CC=C3C(CCC4=Cc5c(cnn5-c5ccc(F)cc5)CC43C)O2)C1=O (configuration not stated) | 188 to 189 °C
10 | CCN(CC)c1cc(F)cc2nc3n(c12)CCCN3c1ccc(Cl)cc1Cl | 142 to 145 °C
11 | Nc1cccnc1Nc1ccccc1C(=O)c1cccc(F)c1 | 135 to 137 °C
12 | COc1cc(-n2nc(C(=O)N(C)C)c3c4ccc(Cl)cc4n(C)c3c2=O)ccn1 | 237 to 238 °C
13 | CCOC(=O)C(=CNC1CC1)C(=O)c1c(F)c(F)c(Br)c(F)c1F | 167 to 168 °C
14 | CC1=CC(OC(=O)c2ccc(O)cc2)C(O)C(C)(C)CC1=O (configuration not stated) | 123 to 125 °C
15 | c1ccc(C2NCCNCc3ccccc32)cc1 (configuration not stated) | 125 °C
16 | Clc1cc2c(cc1Cn1c(Sc3ccccc3)nc(Br)c1Br)OCO2 | 165 °C
17 | CCOC(=O)c1cccc(Sc2nc(C)c(CC(=O)O)s2)n1 | 140 to 142 °C
18 | CCOC(=O)CC(Nc1ccccc1)c1ccccc1 (racemic) | 87 °C
19 | Cc1c(-c2ccccc2)oc2c(NC(=O)C(F)(F)F)cccc2c1=O | 175 to 176 °C
20 | CCOCc1nc2c(N)nc3ccccc3c2n1CCCNC(=O)OC(C)(C)C | 124 to 126 °C
21 | N#Cc1c(N2CCC[C@@H]2CO)[nH]c2cccnc12 | 207 to 209 °C
22 | Cc1oc(-c2ccccc2)nc1COc1cccc(CON)c1 | 81 to 82 °C
23 | CC(C)CNn1c(=O)c(Oc2ccc(F)cc2F)cc2cnc(SCc3ccccc3)nc21 | 132 to 134 °C

Continued, values first:

Row | melting point | SMILES
24 | 258 to 261 °C | C=CC(=O)Nc1ccc2ncnc(Nc3cccc(Br)c3)c2c1
25 | 99 to 100 °C | CCOC(=O)CCc1oc(-n2cncn2)nc1-c1ccc(Cl)cc1
26 | 120 to 121 °C | CCC(=CC(CNC(=O)c1cnccn1)=NO)C(C)[N+](=O)[O-] (configuration not stated)
27 | 247 °C | Cn1cc(-c2cc(-c3cnc4c(c3)CCN4)ccn2)n(-c2ccc(C(C)(C)C#N)cc2)c1=O
28 | 136 to 137 °C | COc1cc(-c2nc(N)nn2CCC2CCCCC2)c(OC)cc1C
29 | 179 to 180 °C | COc1ccc(S(=O)(=O)Nc2ccccc2NC(=O)c2cccnc2)cc1
30 | 92 to 94 °C | CCOC(=O)C1C(C)(O)CCC(O)C1(C)C (configuration not stated)
31 | 115 to 116 °C | O=C(NC1CN(Cc2ccccc2)CCN(Cc2ccccc2)C1)c1n[nH]c2ccccc12
32 | 215 to 217 °C | CCOC(=O)c1cn(-c2nc(NC(C)(C)C)c(F)cc2F)c2c(Cl)c(F)c(F)c([N+](=O)[O-])c2c1=O
33 | 71.5 to 73 °C | COC(=O)c1nc(N(C)C)ccc1OCc1ccccc1
34 | 141 to 142 °C | O=C(Nc1ccc([C@@H]2[C@H]3COC(=O)[C@H]32)c(F)c1)OCc1ccccc1
35 | 134 to 135 °C | C=Cc1cn(S(=O)(=O)c2ccc(C)cc2)c2ccc(C#N)cc12
36 | 85 °C | COC(=O)C1Oc2ccc(Cl)cc2C(c2ccccc2)(C(C)(C)C)O1 (configuration not stated)
37 | 189 to 191 °C | COCc1ncccc1CN(CCn1ccc2oc(C)cc2c1=O)Cc1ccc2c(c1)NC(=O)C(C)(C)C(=O)N2CC1CC1
